pEC50, pKi: −log10 of the molar value. Where two headings read alike, the source gives them in different places.
Assays:
human CB2 receptors = biological target: T1, human CB2 receptors (Homo sapiens, UniProt P34972); assay: human CB2 radioligand binding assay ([3H]CP 55,940 competition); settings: HEK293 membranes, 0.5 nM [3H]CP 55,940; for pKi: read-out: human CB2 (Ki); for Ki: human CB2 (Ki, nM)
T1 construct: expressed in transfected cells; host or cells: HEK293
Method in brief: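 Displacement of 0.5 nM [3H]CP 55,940 over 0.01 nM-10 μM test compound, measured on human CB2 membranes from stably transfected HEK293 cells. Incubation 90 min at 30 °C in Tris/EDTA/MgCl2/BSA, pH 7.4, then filter-bound radioactivity counted; 10 μM unlabeled CP 55,940 defined nonspecific binding.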

Rat CB1 = biological target: T2, Rat CB1 (Rattus norvegicus, UniProt P20272); assay: rat CB1 cyclase functional assay (HitHunter cAMP); type: cell-based; settings: HEK cells, forskolin 37 μM; read-out: Rat CB1 cyclase (EC50)
T2 construct: expressed in transfected cells; host or cells: HEK
T2 sequence (P20272 whole entry): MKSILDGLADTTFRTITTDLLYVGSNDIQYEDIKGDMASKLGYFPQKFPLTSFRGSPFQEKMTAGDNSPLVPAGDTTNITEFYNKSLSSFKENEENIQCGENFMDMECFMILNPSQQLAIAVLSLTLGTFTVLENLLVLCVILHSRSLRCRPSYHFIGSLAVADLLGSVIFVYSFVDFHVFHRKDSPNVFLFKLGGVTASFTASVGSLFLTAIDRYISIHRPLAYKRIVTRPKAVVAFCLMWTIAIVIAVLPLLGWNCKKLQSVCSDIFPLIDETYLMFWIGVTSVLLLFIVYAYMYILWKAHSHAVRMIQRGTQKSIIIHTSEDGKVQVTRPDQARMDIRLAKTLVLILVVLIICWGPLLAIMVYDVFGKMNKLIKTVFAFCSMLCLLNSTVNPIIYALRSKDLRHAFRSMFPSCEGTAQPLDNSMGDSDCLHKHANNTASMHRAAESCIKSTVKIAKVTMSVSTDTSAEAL
Description: The cyclase functional assays were performed using the HitHunter™ cAMP assay kit from DiscoveRx (Fremont, Calif.) according to vendor's protocol. Briefly, HEK cells expressing CB2 or CB1 receptors (rat or human) were detached using cell dissociation buffer (Invitrogen, Carlsbad, Calif.), dispersed and placed in suspension at 10,000 cells per well in 96 well plates prior to the assay. Cell suspensions were incubated at 37° C. for 20 min with variable concentrations of test ligands and or 10 μM CP 55,940-positive control in the presence of a fixed concentration of forskolin (18 μM for rat CB2 and 37 μM for rat CB1) in Dulbescco's phosphate-buffered saline (Invitrogen, Carlsbad, Calif.) supplemented with bovine serum albumin (0.01% final concentration). The reactions were terminated by the addition of lysis buffer and the luminescence was detected following the procedure according to the manufacturer's instructions. EC50 values were calculated using sigmoidal dose-response curve fitting from Prism (GraphPad).

rat CB2 = biological target: T3, rat CB2 (Rattus norvegicus, UniProt Q9QZN9); assay: rat CB2 radioligand binding assay ([3H]CP 55,940 competition); set-up: expressed in transfected cells; host or cells: HEK293; settings: HEK293 membranes, 0.5 nM [3H]CP 55,940; for Ki: rat CB2 (Ki, nM); for pKi: read-out: rat CB2 (Ki)
T3 sequence (Q9QZN9 1-360): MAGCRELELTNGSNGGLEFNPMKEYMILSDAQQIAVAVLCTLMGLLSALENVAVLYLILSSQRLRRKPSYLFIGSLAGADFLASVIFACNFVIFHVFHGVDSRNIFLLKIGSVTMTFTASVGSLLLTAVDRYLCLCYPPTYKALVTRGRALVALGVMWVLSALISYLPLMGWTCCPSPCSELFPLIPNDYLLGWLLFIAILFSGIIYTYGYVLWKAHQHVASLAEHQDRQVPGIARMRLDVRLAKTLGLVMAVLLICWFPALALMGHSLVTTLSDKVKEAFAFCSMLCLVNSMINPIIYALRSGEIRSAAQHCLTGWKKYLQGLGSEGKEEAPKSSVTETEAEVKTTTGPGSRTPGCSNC
Method in brief: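 Competition binding against 0.5 nM [3H]CP 55,940 (pH 7.4 buffer with 0.5 mg/mL BSA, 30 °C, 45 min), with displacers spanning 0.01 nM–10 μM at five concentrations. Receptor source: stably transfected HEK293 membranes, 20 μg/well. Nonspecific binding defined by 10 μM unlabeled CP 55,940; readout by filtration and counting.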

[1] = pharmacokinetic studies in rats; settings: male, Sprague-Dawley, rat; for clearance / half-life: iv; for bioavailability: po
Description: Male Sprague-Dawley rats, weighing 250-400 g, were obtained from Charles Rivers Laboratories. Pharmacokinetic studies were conducted in three groups of rats; each group contained three animals. All groups were dosed with a solution formulation. The first group of three rats received an intravenous dose, administered under isoflurane anesthetic. The second group received an intraperitoneal dose and the third group received an oral dose, administered by gavage. Sequential blood samples were obtained from a tail vein of each animal for 8-24 hours after dosing. Plasma was separated by centrifugation and stored frozen until analysis.
Half life […] and plasma clearance values are based on intravenous administration (3 micromole/kg).
Half life (t1/2) and plasma clearance values are based on intravenous administration (3 micromole/kg).

T1 sequence (P34972 whole entry): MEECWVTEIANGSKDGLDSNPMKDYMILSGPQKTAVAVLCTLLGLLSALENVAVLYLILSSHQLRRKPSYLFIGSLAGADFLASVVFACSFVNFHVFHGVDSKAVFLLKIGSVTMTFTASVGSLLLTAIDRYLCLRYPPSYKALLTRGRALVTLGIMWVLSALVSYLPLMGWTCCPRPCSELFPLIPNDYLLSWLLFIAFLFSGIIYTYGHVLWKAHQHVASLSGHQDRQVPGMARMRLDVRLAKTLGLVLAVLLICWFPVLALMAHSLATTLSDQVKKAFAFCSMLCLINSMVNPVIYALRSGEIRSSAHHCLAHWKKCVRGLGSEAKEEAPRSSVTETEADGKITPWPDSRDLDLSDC

Cn1c(C(C)(C)C)c/c(=N\C(=O)c2cc(C(F)(F)F)ccc2OCC(C)(C)C(=O)O)n1C[C@H]1CCCO1 [Example 124, 3-[2-[({(3E)-5-tert-butyl-1-methyl-2-[(2R)-tetrahydrofuran-2-ylmethyl]-1,2-dihydro-3H-pyrazol-3-ylidene}amino)carbonyl]-4-(trifluoromethyl)phenoxy]-2,2-dimethylpropanoic acid]
pKi (human CB2 receptors): 6.73
pEC50 (Rat CB1): < 4.57
Ki (rat CB2): 43 nM

COc1ccc(C(F)(F)F)cc1C(=O)/N=c1\cc(C(C)(C)C)n(C)n1CC1CC1 [F, reference compound]
clearance ([1]; in vivo, 3 micromole/kg): 63.3 mL/min/kg
half-life ([1]; in vivo, 3 micromole/kg): 126 min
bioavailability ([1]; in vivo, 10 micromole/kg): 11%

CCCCn1/c(=N/C(=O)c2cc(Cl)ccc2OC)cc(C(C)(C)C)n1C [B, reference compound]
clearance ([1]; in vivo, 3 micromole/kg): 40 mL/min/kg
half-life ([1]; in vivo, 3 micromole/kg): 102 min
bioavailability ([1]; in vivo, 10 micromole/kg): 11%

CCCCn1/c(=N/C(=O)c2cc(C(F)(F)F)ccc2OC)cc(C(C)(C)C)n1C [E, reference compound]
clearance ([1]; in vivo, 3 micromole/kg): 33.3 mL/min/kg
half-life ([1]; in vivo, 3 micromole/kg): 174 min
bioavailability ([1]; in vivo, 10 micromole/kg): 9%

Cn1c(C(C)(C)C)c/c(=N\C(=O)c2cc([N+](=O)[O-])ccc2OCC(C)(C)O)n1C[C@H]1CCCO1 [Example 121, N-{(3E)-5-tert-butyl-1-methyl-2-[(2R)-tetrahydrofuran-2-ylmethyl]-1,2-dihydro-3H-pyrazol-3-ylidene}-2-(2-hydroxy-2-methylpropoxy)-5-nitrobenzamide]
Ki (human CB2 receptors): 13 nM
pEC50 (Rat CB1): 5.33
Ki (rat CB2): 7.7 nM

Cn1c(C(C)(C)C)c/c(=N\C(=O)c2cccc(C(F)(F)F)c2F)n1CC1CC1 [A, reference compound]
clearance ([1]; in vivo, 3 micromole/kg): 10 mL/min/kg
half-life ([1]; in vivo, 3 micromole/kg): 42 min
bioavailability ([1]; in vivo, 10 micromole/kg): 26%

CC(C)Cn1/c(=N/C(=O)c2cccc(C(F)(F)F)c2F)cc(C(C)(C)C)n1C [C, reference compound]
clearance ([1]; in vivo, 3 micromole/kg): 26.7 mL/min/kg
half-life ([1]; in vivo, 3 micromole/kg): 48 min
bioavailability ([1]; in vivo, 10 micromole/kg): 45%

CCCCCn1/c(=N/C(=O)c2cc(C(F)(F)F)ccc2OCC(C)(C)O)cc(C(C)(C)C)n1C [Example 99, N-[(3E)-5-tert-butyl-1-methyl-2-pentyl-1,2-dihydro-3H-pyrazol-3-ylidene]-2-(2-hydroxy-2-methylpropoxy)-5-(trifluoromethyl)benzamide]
Ki (human CB2 receptors): 9.2 nM
half-life ([1]; in vivo, 3 micromole/kg): 336 min
clearance [1]: 18.3 mL/min/kg
bioavailability [1]: 37%
Ki (rat CB2): 4.4 nM

CC(C)[C@H](O)COc1ccc(C(F)(F)F)cc1C(=O)/N=c1\cc(C(C)(C)C)n(C)n1C[C@H]1CCCO1 [Example 111, N-{(3E)-5-tert-butyl-1-methyl-2-[(2R)-tetrahydrofuran-2-ylmethyl]-1,2-dihydro-3H-pyrazol-3-ylidene}-2-{[(2S)-2-hydroxy-3-methylbutyl]oxy}-5-(trifluoromethyl)benzamide]
Ki (human CB2 receptors): 1.8 nM
Ki (rat CB2): 1 nM

Cn1c(C(C)(C)C)c/c(=N\C(=O)c2cc(C(F)(F)F)ccc2OCC(C)(C)O)n1CCCC(F)(F)F [Example 135, N-[(3E)-5-tert-butyl-1-methyl-2-(4,4,4-trifluorobutyl)-1,2-dihydro-3H-pyrazol-3-ylidene]-2-(2-hydroxy-2-methylpropoxy)-5-(trifluoromethyl)benzamide]
Ki (human CB2 receptors): 23 nM
Ki (rat CB2): 5.5 nM

Cn1c(C(C)(C)C)c/c(=N\C(=O)c2cc(C(F)(F)F)ccc2OCCCS(C)(=O)=O)n1CC1CCC1 [Example 134, N-[(3E)-5-tert-butyl-2-(cyclobutylmethyl)-1-methyl-1,2-dihydro-3H-pyrazol-3-ylidene]-2-[3-(methylsulfonyl)propoxy]-5-(trifluoromethyl)benzamide]
Ki (human CB2 receptors): 22 nM
Ki (rat CB2): 40 nM

CSCCCOc1ccc(C(F)(F)F)cc1C(=O)/N=c1\cc(C(C)(C)C)n(C)n1CC1CCC1 [Example 133, N-[(3E)-5-tert-butyl-2-(cyclobutylmethyl)-1-methyl-1,2-dihydro-3H-pyrazol-3-ylidene]-2-[3-(methylthio)propoxy]-5-(trifluoromethyl)benzamide]
Ki (human CB2 receptors): 13 nM
Ki (rat CB2): 15 nM

C[C@H](c1ccccc1)N1C[C@@H](COc2ccc(C(F)(F)F)cc2C(=O)/N=c2\cc(C(C)(C)C)n(C)n2C[C@H]2CCCO2)OC1=O [Example 44, N-{(3E)-5-tert-butyl-1-methyl-2-[(2R)-tetrahydrofuran-2-ylmethyl]-1,2-dihydro-3H-pyrazol-3-ylidene}-2-({(5 S)-2-oxo-3-[(1R)-1-phenylethyl]-1,3-oxazolidin-5-yl}methoxy)-5-(trifluoromethyl)benzamide]
Ki (human CB2 receptors): > 1000 nM
Ki (rat CB2): 408 nM

Cn1c(C(C)(C)C)c/c(=N\C(=O)c2cc(C(F)(F)F)ccc2OC[C@@H](O)CNC(C)(C)C)n1C[C@H]1CCCO1 [Example 105, 2-{[(2S)-3-(tert-butylamino)-2-hydroxypropyl]oxy}-N-{(3E)-5-tert-butyl-1-methyl-2-[(2R)-tetrahydrofuran-2-ylmethyl]-1,2-dihydro-3H-pyrazol-3-ylidene}-5-(trifluoromethyl)benzamide]
pKi (human CB2 receptors): < 6.00
pKi (rat CB2): 6.39

Cn1c(C(C)(C)C)c/c(=N\C(=O)c2cc(C(F)(F)F)ccc2OCCN2CCNC2=O)n1C[C@H]1CCCO1 [Example 48, N-{(3E)-5-tert-butyl-1-methyl-2-[(2R)-tetrahydrofuran-2-ylmethyl]-1,2-dihydro-3H-pyrazol-3-ylidene}-2-[2-(2-oxoimidazolidin-1-yl)ethoxy]-5-(trifluoromethyl)benzamide]
pKi (human CB2 receptors): 6.60
Ki (rat CB2): 53 nM

CC1=NOC(Cn2/c(=N/C(=O)c3cc(C(F)(F)F)ccc3OC[C@@H]3CCCO3)cc(C(C)(C)C)n2C)C1 (stereo partly drawn) [Example 31, N-{(3E)-5-tert-butyl-1-methyl-2-[(3-methyl-4,5-dihydroisoxazol-5-yl)methyl]-1,2-dihydro-3H-pyrazol-3-ylidene}-2-[(2S)-tetrahydrofuran-2-ylmethoxy]-5-(trifluoromethyl)benzamide]
Ki (human CB2 receptors): 239 nM
Ki (rat CB2): 63 nM

CSC(C)(C)COc1ccc(C(F)(F)F)cc1C(=O)/N=c1\cc(C(C)(C)C)n(C)n1C[C@H]1CCCO1 [Example 64, N-{(3E)-5-tert-butyl-1-methyl-2-[(2R)-tetrahydrofuran-2-ylmethyl]-1,2-dihydro-3H-pyrazol-3-ylidene}-2-[2-methyl-2-(methylthio)propoxy]-5-(trifluoromethyl)benzamide]
pKi (human CB2 receptors): 6.48
pKi (rat CB2): 6.94

Cn1c(C(C)(C)C)c/c(=N\C(=O)c2cc(C(F)(F)F)ccc2OCC(C)(C)O)n1CC1CCOCC1 [Example 95, N-[(3E)-5-tert-butyl-1-methyl-2-(tetrahydro-2H-pyran-4-ylmethyl)-1,2-dihydro-3 H-pyrazol-3-ylidene]-2-(2-hydroxy-2-methylpropoxy)-5-(trifluoromethyl)benzamide]
pKi (human CB2 receptors): < 6.00
pKi (rat CB2): 6.48

CCCCn1/c(=N/C(=O)c2cc(C(F)(F)F)ccc2Cl)cc(C(C)(C)C)n1C [D, reference compound]
clearance ([1]; in vivo, 3 micromole/kg): 56.7 mL/min/kg
half-life ([1]; in vivo, 3 micromole/kg): 18 min
bioavailability ([1]; in vivo, 10 micromole/kg): 10%

CCCCn1/c(=N/C(=O)c2cc(C(F)(F)F)ccc2OCC(C)(C)OC)cc(C(C)(C)C)n1C [G, reference compound]
clearance ([1]; in vivo, 3 micromole/kg): 45 mL/min/kg
half-life ([1]; in vivo, 3 micromole/kg): 90 min
bioavailability ([1]; in vivo, 10 micromole/kg): 5%

Reference: patent US8188135B2, “Compounds as cannabinoid receptor ligands” (priority 2008, dated 2012)
